Entries after “also recorded” stand apart in the source; their conditions may differ. Read-outs that look alike come from different tables or passages of the source.

These results are taken from US10821177B2, “Induction of differential stress resistance and uses thereof” (University of Southern California, priority 2007, dated 2020).

For one data set, the system named is LID mice. Conditions: for mortality: 500 mg/kg cyclophosphamide i.p. As for the experimental part:
Thirty-four to forty-two-week old LID and their control L/L-mice were used to evaluate the role of circulating liver-derived IGF-I in stress resistance. LID and L/L-mice were generated using the Cre/loxP system as described before. […] All mice were individually caged throughout the experiment and had access to food and water ad libitum. Both LID and L/L-mice were each injected 500 mg/kg of cyclophosphamide i.p. using 29G insulin syringes. Cyclophosphamide was prepared in saline at 40 mg/ml and warmed prior to injection. Mice were routinely monitored for weight loss and signs of pain and stress. Survival time was the main criterion for determining the effect of low circulating IGF-I on the resistance to high-dose cyclophosphamide. The statistical significance of differential survival between experimental groups was determined by Kaplan-Meier curves and log-rank test using GraphPad Prism 4 software (San Diego, Calif.).

In data set [1] the test system is primary rat mixed glial cells.
Experimental: (§4) Primary mixed glial cells were obtained from the cerebral cortex of 1 to 3 day old Sprague Dawley rat pups (Charles River) as described before. Cells cultured for 10-14 days in DMEM/F12 medium with 10% fetal bovine serum (FBS) were used in assays. C6, A10-85, 9L and RG2 rat glioma cell lines and LN229 human glioma cell line and SH-SY5Y human neuroblastoma cell line were maintained in DMEM/F12 medium with 10% FBS at 37° C. under 5% CO2.
(§5) Cells were seeded into 96-well microliter plates at 20,000-30,000 cells/well and incubated for 2 days. Cells were washed with phosphate buffered saline (PBS) prior to treatments as indicated in the text. All treatments were performed at 37° C. under 5% CO2.
Glucose restriction was done by incubating cells in glucose free DMEM (Invitrogen) supplemented with either low glucose (0.5 gL) or normal glucose (1.0 gL) for 24 hours. Serum restriction was done by incubating cells in DMEMIF12 with either 10% or 1% FBS for 24 hours. […]
(§6) Cytotoxicity was measured by either LDH release using the CytoTox 96 Non-Radioactive Cytotoxicity Assay kit (Promega) or the ability to reduce methylthiazolyldiphenyltetrazolium bromide (MTT). % LDH release was determined with reference to the maximum and background LDH release of control cells. […]
Cyclophosphamide (CP, Sigma) was used for in vitro chemotherapy studies. […] Cytotoxicity was measured by either lactate dehydrogenase released using the CytoTox 96 Non-Radioactive Cytotoxicity Assay kit (Promega) or the ability to reduce methylthiazolyldiphenyl-tetrazolium bromide (MTT). LDH released into the medium by lysed cells were measured with a 10-minute enzymatic assay that converts a tetrazolium salt (INT) into a red formazan product. A 96-well based colorimetric assay measured the amount of the red formazan formed, which is proportional to the number of dead cells. % LDH release was determined with reference to the maximum and background LDH release of control cells.
Data set [2] concerns primary rat mixed glial cells. The data set is described as follows: Cyclophosphamide cytotoxicity by LDH release (serum restriction, IGF-I, aIR3) in primary glia. Conditions: 15 mg/ml CP, 10% serum. Type of data set: cell-based.
Experimental: as §4
Cells were seeded into 96-well microliter plates at 20,000-30,000 cells/well and incubated for 2 days. Cells were washed with phosphate buffered saline (PBS) prior to treatments as indicated in the text. All treatments were performed at 37° C. under 5% CO2. […]
as §6
Cyclophosphamide (CP, Sigma) was used for in vitro chemotherapy studies. […] Cytotoxicity was measured by either lactate dehydrogenase released using the CytoTox 96 Non-Radioactive Cytotoxicity Assay kit (Promega) or the ability to reduce methylthiazolyldiphenyl-tetrazolium bromide (MTT). […]
A further data set has as its system C6 glioma cells. The data set is described as follows: Cyclophosphamide cytotoxicity by LDH release in C6 glioma cells. Type of data set: cell-based, rat. Background: Release of lactate dehydrogenase indicates damage to the cell membrane.
The test system of the next data set is S. cerevisiae. Type of data set: cell-based. Conditions: 48-hour treatment with CP (0.1 M), strains treated separately.
Data set [3] has as its system cortical neurons from E18 rat embryos. Conditions: pre-treatment with inhibitor. As to the method: FIG. 23. […] Cortical neurons from E18 rat embryos were cultured onto 96-well plates (A) or glass coverslips in 6-well plates (B). On 10-14 DIV, the neurons were pre-treated with MEK1/ERK1/2 inhibitors U0126 or SL327. Oxidative stress was induced by hydrogen peroxide or menadione. Cell viability was measured with MTT survival assay (A) or live/dead assay (B). C) % death was calculated from the number of dead (red) and live (green) cells.

For a further data set, the system named is PC12 cells. The data set is described as follows: IGF-I and paraquat oxidative toxicity, MTT, PC12 cells. Type of data set: cell-based, rat. Conditions: 100 ng/ml IGF-I 24 hr, 100 μM paraquat. As for the experimental part: (§1) FIG. 12. […] Primary rat cortical neurons or PC12 cells incubated in 1% serum and 4 g/L glucose were treated for 24 hr with vehicle, 100 μM of paraquat, 100 ng/ml of IGF-I followed by 100 μM of paraquat, or 100 ng/ml of IGF-1 alone and were then subjected to MTT reduction activity assay to assess cell viability. Data from 4 independent experiments are normalized to control and expressed as the mean±S.E.M.
Primary rat neurons and PC12 cells were treated with IGF-1 and paraquat to determine the effect of IGF-1 on oxidative stress. Cortical neurons were treated for 24 hours in Eagle's minimal essential medium (Invitrogen) supplemented with 21 mM glucose and 1% horse serum. PC12 cells were plated at 5×10^4 cells/well onto poly-D-lysine coated. 96-well plates and were grown for 24 hours in F12K 1% HS. Both types of cells were then treated with either 100 μM of paraquat, IGF-1 (100 ng/ml) followed 30 minutes later by paraquat (100 μM) or IGF-1 (100 ng/ml) alone in appropriate media. Survival was determined by the MTT assay and presented as percent ratio of treated to control.

Data set [4] relates to primary rat cortical neurons. The data set is described as follows: IGF-I and paraquat oxidative toxicity, MTT, cortical neurons. The format is cell-based. Conditions: 100 ng/ml IGF-I 24 hr, 100 μM paraquat. As to the method:
as §1
Primary neurons from embryonic day 18 Sprague-Dawley rat cerebral cortices were dissociated in neurobasal medium (Invitrogen) supplemented with 0.5 mM L-glutamine, 25 μM L-glutamic acid and 2% B-27 and plated at 640 cells/mm^2 in 96-well plates which were pre-coated with 10 microg/ml poly-D-lysine dissolved in Borax buffer (0.15 M, pH 8.4). Neurons were maintained at 37° C. in 5% CO2 in neurobasal medium supplemented with B-27 and 0.5 mM L-glutamine for 4 days.
Primary rat neurons and PC12 cells were treated with IGF-1 and paraquat to determine the effect of IGF-1 on oxidative stress. Cortical neurons were treated for 24 hours in Eagle's minimal essential medium (Invitrogen) supplemented with 21 mM glucose and 1% horse serum. PC12 cells were plated at 5×10^4 cells/well onto poly-D-lysine coated. 96-well plates and were grown for 24 hours in F12K 1% HS. […] Survival was determined by the MTT assay and presented as percent ratio of treated to control.

In a further data set the test system is sch9/aktΔ. The data set is described as follows: Yeast viability (CFU) in mixed cultures, chronic MMS treatment, sch9/aktΔ cells. Type of data set: cell-based, S. cerevisiae. Conditions: 48-hour treatment, 0.01% MMS, mixed culture. As for the experimental part: (§2) Overnight cultures were diluted to OD600 0.1 into SDC medium. After 24 hours (day I), the appropriate strains were mixed 1:1 based on OD600 and incubated for 2 hours. The mixed cultures were then treated with either cyclophosphamide (CP, 0.1 M) or […] (MMS, 0.01%, Sigma) in medium or water (STS). For treatment SDC, MMS was introduced directly into the mixed culture to a final concentration of 0.01%. However, due to the high concentration of CP (0.1 M) used, CP was dissolved directly into the medium. To do so, mixed cultures were centrifuged for 5 minutes at 2,500 rpm and the media was collected, in which CP was dissolved to a concentration of 0.1 M. The mixed culture was then resuspended in the CP-containing medium. […] Viability was measured by quantifying colony-forming units (CFUs) every 24 hours by plating onto appropriate selective media. Viability of individual strains was measured using the same method as for the mixed cultures.
(§3) Overnight SDC cultures were diluted to OD600 0.1 into fresh SDC medium. […] Viability was measured as colony-forming units (CFUs) every 24 hours by plating onto appropriate selective media. Viability of individual strains was measured using the same method as for the mixed cultures. Relative survival shown was determined by the percentage of the ratio between the treated and untreated (control) cells.

The test system of data set [5] is sch9/aktΔRAS2^val19 cells. The data set is described as follows: Yeast viability (CFU) in mixed cultures, chronic MMS treatment, RAS2val19-expressing cells. Conditions: 48-hour treatment, 0.01% MMS. Type of data set: cell-based, S. cerevisiae. As for the experimental part: as §2, §3

Experimental for C6 glioma cells: as §4, §5
Glucose restriction was done by incubating cells in glucose free DMEM (Invitrogen) supplemented with either low glucose (0.5 gL) or normal glucose (1.0 gL) for 24 hours. Serum restriction was done by incubating cells in DMEMIF12 with either 10% or 1% FBS for 24 hours. IGF-I treatment was carried out by incubating cells for 48 hours in DMEM/F12 with 1% FBS and rhIGF-I (100 n g/ml, ProSpec-Tany TechnoGene, Rehovot, Israel), which is shown to be within the IGF-I level range for middle age humans. To antagonize IGF-I receptor activity, cells were incubated with neutralizing monoclonal anti-IGF-IR antibody (aIR3, 1 pg/ml; Calbiochem) in DMEM/F12 1% FBS for 24 hours.
as §6
Cyclophosphamide (CP, Sigma) was used for in vitro chemotherapy studies. […] Cytotoxicity was measured by either lactate dehydrogenase released using the CytoTox 96 Non-Radioactive Cytotoxicity Assay kit (Promega) or the ability to reduce methylthiazolyldiphenyl-tetrazolium bromide (MTT). LDH released into the medium by lysed cells were measured with a 10-minute enzymatic assay that converts a tetrazolium salt (INT) into a red formazan product.
Experimental for S. cerevisiae: Overnight cultures were diluted to OD600 0.1 into SDC medium. After 24 hours (day I), the appropriate strains were mixed 1:1 based on OD600 and incubated for 2 hours. […] For treatment SDC, MMS was introduced directly into the mixed culture to a final concentration of 0.01%. However, due to the high concentration of CP (0.1 M) used, CP was dissolved directly into the medium. To do so, mixed cultures were centrifuged for 5 minutes at 2,500 rpm and the media was collected, in which CP was dissolved to a concentration of 0.1 M. The mixed culture was then resuspended in the CP-containing medium. For treatments in water (STS), mixed cultures were centrifuged for 5 minutes at 2,500 rpm and the media was replaced with either distilled/sterile water or drug-dissolved water. Viability was measured by quantifying colony-forming units (CFUs) every 24 hours by plating onto appropriate selective media. Viability of individual strains was measured using the same method as for the mixed cultures.

As a reminder, the mortality is the percentage killed. Higher therefore signals a strong lethal effect. Take `O=P1(N(CCCl)CCCl)NCCCO1` (stereo not drawn) [CP, cyclophosphamide]: the average weight loss in the data set with LID mice (LID mice, 500 mg/kg cyclophosphamide) was 10%. For the same compound, the mortality in the data set on LID mice (LID mice) amounted to 30%; in the data set on LID mice (control mice) it was 70%. In the data set with LID mice (control mice, 500 mg/kg cyclophosphamide), this compound displayed a weight loss of 20%. The “signs of toxicity in surviving mice” value in the data set on LID mice (surviving LID mice) is reported as “did not show any signs of toxicity”. Moreover, the glial cells resistant in data set [1] (12 mg/ml CP, 0.5 g/L glucose) was determined as 80%. The compound also displayed a cells that survived in data set [1] (12 mg/ml CP, 1 g/L glucose) of 20%. In data set [1] (normal vs cancer cells), the “differential stress resistance of mammalian cells by the starvation-response methods” value is “less than 10 fold”. The “toxicity to primary glial cells” value in [2] is on record as “toxic”. In addition, the “toxicity to C6 glioma cells in 10% serum versus 1% serum” value in the data set with C6 glioma cells (15 mg/ml CP) is recorded as “as toxic”. In addition, in the data set with S. cerevisiae, the “toxicity to RAS2^val19 and wild type cells” value is given as “toxic”.
`N#CC(=C(/N)Sc1ccccc1N)/C(C#N)=C(\N)Sc1ccccc1N` [U0126]: the “resistance of neurons to oxidative stress (hydrogen peroxide or menadione)” value in data set [3] is given as “protects neurons against oxidative stress”.
As to “IGF-I: rhIGF-I (ProSpec-Tany TechnoGene), 100 ng/ml”, the “sensitization to oxidative toxicity” value in the data set on PC12 cells is “not in PC12 cells”; in [4], “sensitizes”. In the data set with C6 glioma cells (100 ng/ml IGF-I), the “increase in the toxicity of CP to C6 glioma cells” value is “minor increase; also recorded: did not increase”.
For `COS(C)(=O)=O` [MMS, methyl methanesulfonate], the “sch9/aktΔ cells that survived” value in the data set on sch9/aktΔ was “great majority”. In addition, the “sch9/aktΔRAS2^val19 cells that survived” value in data set [5] (mixed culture (Example I)) was “none”; in data set [5] (mixed culture (Example II)), “less than 5%”.
